The record followed here is patent US20260028365A1 (BIOGEN MA INC., priority 2022, published 2026).

Molecules are shown by their SMILES. A value given as a limit tells only on which side of the number the result lay.

The target in one assay is Tyk2 (Homo sapiens (Human), UniProt P29597). The assay can be described thus: pSTAT4 Cell Assay (MSD, NK92 cells). The settings on record: MSD. In kind it is cell-based.
Another assay has as its target JH2 domain of human Tyk2 (Homo sapiens (Human), UniProt P29597). Put plainly: JH2 Biochemical Assay (TR-FRET probe displacement). The format is binding. As to conditions: JH2 domain of human Tyk2, TR-FRET probe displacement.

Chain of Tyk2 (P29597 whole entry, the tested form may be a part): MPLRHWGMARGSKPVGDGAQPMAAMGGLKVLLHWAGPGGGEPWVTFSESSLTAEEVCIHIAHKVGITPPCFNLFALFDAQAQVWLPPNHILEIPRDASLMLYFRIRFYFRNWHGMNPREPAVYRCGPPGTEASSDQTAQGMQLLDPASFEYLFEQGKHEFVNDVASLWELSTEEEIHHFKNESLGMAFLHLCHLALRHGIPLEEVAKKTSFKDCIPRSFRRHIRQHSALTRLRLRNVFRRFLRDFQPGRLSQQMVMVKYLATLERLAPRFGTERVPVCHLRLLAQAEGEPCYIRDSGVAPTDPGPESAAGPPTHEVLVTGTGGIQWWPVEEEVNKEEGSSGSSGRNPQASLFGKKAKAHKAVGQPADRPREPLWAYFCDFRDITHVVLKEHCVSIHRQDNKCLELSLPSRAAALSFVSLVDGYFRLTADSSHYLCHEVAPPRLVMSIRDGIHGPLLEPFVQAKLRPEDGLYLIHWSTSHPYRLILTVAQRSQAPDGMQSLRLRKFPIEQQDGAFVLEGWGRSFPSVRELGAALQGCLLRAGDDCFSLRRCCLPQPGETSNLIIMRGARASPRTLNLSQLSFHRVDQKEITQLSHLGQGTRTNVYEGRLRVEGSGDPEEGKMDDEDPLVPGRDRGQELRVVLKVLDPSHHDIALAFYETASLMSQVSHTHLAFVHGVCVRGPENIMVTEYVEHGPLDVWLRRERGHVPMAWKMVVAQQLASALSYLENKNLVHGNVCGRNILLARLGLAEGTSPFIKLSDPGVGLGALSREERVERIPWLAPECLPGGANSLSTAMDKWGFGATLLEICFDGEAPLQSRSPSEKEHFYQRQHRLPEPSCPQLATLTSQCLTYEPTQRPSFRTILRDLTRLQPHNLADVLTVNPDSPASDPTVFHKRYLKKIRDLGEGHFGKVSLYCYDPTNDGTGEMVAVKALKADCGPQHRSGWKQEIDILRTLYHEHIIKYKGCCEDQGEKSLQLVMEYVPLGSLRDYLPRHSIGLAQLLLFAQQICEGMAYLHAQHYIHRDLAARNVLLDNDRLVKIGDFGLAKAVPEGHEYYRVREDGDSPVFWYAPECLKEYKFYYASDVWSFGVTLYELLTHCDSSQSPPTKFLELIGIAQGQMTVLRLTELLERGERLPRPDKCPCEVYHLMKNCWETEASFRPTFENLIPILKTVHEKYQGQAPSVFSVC
Chain of JH2 domain of human Tyk2 (P29597 575-876): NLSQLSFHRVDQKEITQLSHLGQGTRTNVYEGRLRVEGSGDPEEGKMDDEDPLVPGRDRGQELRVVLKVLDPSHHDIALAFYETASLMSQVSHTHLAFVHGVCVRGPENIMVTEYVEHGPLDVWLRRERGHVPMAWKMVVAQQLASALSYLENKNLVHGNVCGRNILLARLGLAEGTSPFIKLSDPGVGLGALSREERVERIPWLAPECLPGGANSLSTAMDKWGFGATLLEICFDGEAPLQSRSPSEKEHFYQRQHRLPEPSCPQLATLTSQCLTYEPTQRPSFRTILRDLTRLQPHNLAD

Turning to `CC(=O)Nc1cc(Nc2cc(C)nc(C(C)(F)F)n2)c(OCc2cncc(F)c2)cn1` [Example 474, N-(4-((2-(1,1-difluoroethyl)-6-methylpyrimidin-4-yl)amino)-5-((5-fluoropyridin-3-yl)methoxy)pyridin-2-yl)acetamide], the figures for the IC50 against Tyk2 and on JH2 domain of human Tyk2 were 10 to 100 nM and at most 10 nM, respectively.
The corresponding values for `CC(=O)Nc1cc(Nc2cc(C)nc(C(C)(F)F)n2)c(OCc2ccn(C)n2)cn1` [Example 475, N-(4-((2-(1,1-difluoroethyl)-6-methylpyrimidin-4-yl)amino)-5-((1-methyl-1H-pyrazol-3-yl)methoxy)pyridin-2-yl)acetamide] are 10 to 100 nM and at most 10 nM.
The corresponding values for `CC(=O)Nc1cc(Nc2cc(C)nc(C(C)(F)F)n2)c(OCCc2ccccn2)cn1` [Example 476, N-(4-((2-(1,1-difluoroethyl)-6-methylpyrimidin-4-yl)amino)-5-(2-(pyridin-2-yl)ethoxy)pyridin-2-yl)acetamide] are 10 to 100 nM and at most 10 nM.
With `CC(=O)Nc1cc(Nc2cc(C)nc(C(C)(F)F)n2)c(OC2CCOC2)cn1` (stereo not drawn) [Example 477, N-(4-((2-(1,1-difluoroethyl)-6-methylpyrimidin-4-yl)amino)-5-((tetrahydrofuran-3-yl)oxy)pyridin-2-yl)acetamide], the figures for the IC50 on Tyk2 and on JH2 domain of human Tyk2 were 10 to 100 nM and at most 10 nM, respectively.
Taken in the same sequence, the figures for `CC(=O)Nc1cc(Nc2cc(C)nc(C(C)(F)F)n2)c(OC2CCN(C)C2)cn1` (stereo not drawn) [Example 478, N-(4-((2-(1,1-difluoroethyl)-6-methylpyrimidin-4-yl)amino)-5-((1-methylpyrrolidin-3-yl)oxy)pyridin-2-yl)acetamide] were 100 to 1000 nM and at most 10 nM.
The corresponding values for `CC(=O)Nc1cc(Nc2cc(C)nc(C(C)(F)F)n2)c(OCC2CCCN2C)cn1` (stereo not drawn) [Example 479, N-(4-((2-(1,1-difluoroethyl)-6-methylpyrimidin-4-yl)amino)-5-((1-methylpyrrolidin-2-yl)methoxy)pyridin-2-yl)acetamide] are 100 to 1000 nM and at most 10 nM.
Turning to `CC(=O)Nc1cc(Nc2cc(C)nc(C(C)(F)F)n2)c(OCC2CCCO2)cn1` (stereo not drawn) [Example 481, N-(4-((2-(1,1-difluoroethyl)-6-methylpyrimidin-4-yl)amino)-5-((tetrahydrofuran-2-yl)methoxy)pyridin-2-yl)acetamide], the IC50 (commonly the midpoint of a concentration-inhibition curve) is 10 to 100 nM at Tyk2 and at most 10 nM on JH2 domain of human Tyk2.
Taken in the same sequence, the figures for `CC(=O)Nc1cc(Nc2cc(C)nc(C(C)(F)F)n2)c(OCCOC(C)C)cn1` [Example 482, N-(4-((2-(1,1-difluoroethyl)-6-methylpyrimidin-4-yl)amino)-5-(2-isopropoxyethoxy)pyridin-2-yl)acetamide] were 10 to 100 nM and at most 10 nM.
Taken in the same sequence, the figures for `CC(=O)Nc1cc(Nc2cc(C)nc(C(C)(F)F)n2)c(OCC2(F)COC2)cn1` [Example 483, N-(4-((2-(1,1-difluoroethyl)-6-methylpyrimidin-4-yl)amino)-5-((3-fluorooxetan-3-yl)methoxy)pyridin-2-yl)acetamide] were 10 to 100 nM and at most 10 nM.
With `CC(=O)Nc1cc(Nc2cc(C)nc(C(C)(F)F)n2)c(OCc2ccc3c(c2)OCO3)cn1` [Example 484, N-(5-(benzo[d][1,3]dioxol-5-ylmethoxy)-4-((2-(1,1-difluoroethyl)-6-methylpyrimidin-4-yl)amino)pyridin-2-yl)acetamide], the figures for the IC50 on Tyk2 and on JH2 domain of human Tyk2 were 10 to 100 nM and at most 10 nM, respectively.
Turning to `CCOc1cnc(NC(C)=O)cc1Nc1cc(NC)nc(C(C)(F)F)n1` [Example 485, N-(4-((2-(1,1-difluoroethyl)-6-(methylamino)pyrimidin-4-yl)amino)-5-ethoxypyridin-2-yl)acetamide], the IC50 against Tyk2 was 10 to 100 nM; at JH2 domain of human Tyk2, at most 10 nM.
Taken in the same sequence, the figures for `CC(=O)Nc1cc(Nc2cc(OC3CC3)nc(C(C)(F)F)n2)c(OCc2ccccc2)cn1` [Example 487, N-(5-(benzyloxy)-4-((6-cyclopropoxy-2-(1,1-difluoroethyl)pyrimidin-4-yl)amino)pyridin-2-yl)acetamide] were at most 10 nM and at most 10 nM.
